Measurements: patent publication US8338431B2, “Phosphodiesterase inhibitors” (Leo Pharma A/S, priority 2007, dated 2012)

Experiments:
[1] = system: TNF-α release from human peripheral blood mononuclear cells (PBMC); test: TNF-α Release in LPS stimulated PBMC; type: cell-based; settings: 30 minutes pre-incubation, stimulated 18 hours with lipopolysaccharide, TNF-α in supernatant by enzyme immunoassay
Experimental: Human peripheral blood mononuclear cells (PBMC) were isolated from buffy coats. The blood is mixed with saline at a ratio of 1:1, and the PBMC were isolated using Lymphoprep Tubes™ (Nycomed, Norway). The PBMC were suspended in RPMI1640 with 2% foetal calf serum (FCS), pen/strep and 2 mM L-glutamine at a concentration of […]. The cells were pre-incubated for 30 minutes with the test compounds in 96 well tissue culture plates and stimulated for 18 hours with lipopolysaccharide […] (Sigma). The level of TNF-α was measured in the culture supernatant by enzyme immunoassays using primary and secondary biotinylated antibodies from R&D systems. Results are expressed as IC50 values calculated from inhibition curves using as positive controls the secretion in LPS stimulated wells and as negative controls the secretion in unstimulated cells.

[2] = target: Human recombinant PDE4 (Genbank accession no NM—006203) (Homo sapiens, UniProt Q08499); test: PDE4 Assay (SPA, cleavage of cAMP); type: biochemical; settings: human recombinant PDE4, 1 hour incubation, cAMP 1×10^-5M, test compound up to 10 μM; read-out: IC50 (PDE4)
Chain of Human recombinant PDE4 (Genbank accession no NM—006203) (Q08499 1-673 isoform Q08499-2): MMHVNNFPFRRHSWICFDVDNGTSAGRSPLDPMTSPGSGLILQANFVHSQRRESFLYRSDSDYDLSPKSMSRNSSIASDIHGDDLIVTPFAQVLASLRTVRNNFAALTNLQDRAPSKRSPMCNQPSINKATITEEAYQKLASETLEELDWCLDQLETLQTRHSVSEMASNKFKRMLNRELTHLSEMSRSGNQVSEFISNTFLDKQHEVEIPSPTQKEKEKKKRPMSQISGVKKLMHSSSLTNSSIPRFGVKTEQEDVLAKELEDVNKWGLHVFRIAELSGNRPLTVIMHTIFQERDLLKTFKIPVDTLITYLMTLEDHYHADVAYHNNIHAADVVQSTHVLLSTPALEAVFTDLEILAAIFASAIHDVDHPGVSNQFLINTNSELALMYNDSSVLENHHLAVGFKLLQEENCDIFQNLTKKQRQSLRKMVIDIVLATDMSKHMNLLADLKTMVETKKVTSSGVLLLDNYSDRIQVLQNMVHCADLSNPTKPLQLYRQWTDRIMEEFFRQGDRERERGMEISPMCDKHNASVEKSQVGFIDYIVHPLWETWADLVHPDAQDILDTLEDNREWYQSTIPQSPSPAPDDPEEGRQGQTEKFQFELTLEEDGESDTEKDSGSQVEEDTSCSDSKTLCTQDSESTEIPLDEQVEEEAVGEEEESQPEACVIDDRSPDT
Experimental: Human recombinant PDE4 (Genbank accession no NM_006203) was incubated for 1 hour, with the test compound at concentrations up to 10 μM, with cAMP (1×10^-5M), and with a low amount (0.021 MBq) of radioactively labelled cAMP. At the end of the incubation, the cleavage of the substrate was evaluated by the binding of the AMP product to SPA beads, which generate […] when bound to the radioactive tracer. The AMP product inhibited the binding of the radioactive tracer to the beads, and the luminescent signal was competed. The results were calculated as the molar concentrations resulting in 50% inhibition of the substrate cleavage compared to controls samples, and are expressed as IC50 (M).

| Compound | IC50 [1] [nM] | IC50 [2] [nM] |
| --- | --- | --- |
| COc1ccc(C(=O)Cc2c(Cl)c[n+]([O-])cc2Cl)c2c1OCC1(COCOC1)CO2 [Compound 131, 2-(3,5-Dichloro-1-oxido-pyridine-4-yl)-1-{9-methoxy-spiro[2H-1,5-benzodioxepin-3(4H),5′-[1,3]dioxane]-6-yl}ethanone] | 16 | 43 |
| COc1ccc(C(=O)Cc2c(Cl)cncc2Cl)c2c1OCC1(CO2)CSCSC1 [Compound 132, 2-(3,5-Dichloropyridin-4-yl)-1-{9-methoxy-spiro[2H-1,5-benzodioxepin-3(4H),5′-[1,3]dithiane]-6-yl}ethanone] | 29 | 26 |
